Data published in patent US10179771B2 (GALAPAGOS NV, priority 2014, dated 2019).
pIC50: −log10 of the molar value.

Molecular target: T1, Recombinant human TYK2 catalytic domain (Homo sapiens, UniProt P29597)
T1 construct: Recombinant human TYK2 catalytic domain (amino acids 871-1187; catalog number 08-147); purchased Carna biosciences 08-147
T1 sequence (P29597 871-1187): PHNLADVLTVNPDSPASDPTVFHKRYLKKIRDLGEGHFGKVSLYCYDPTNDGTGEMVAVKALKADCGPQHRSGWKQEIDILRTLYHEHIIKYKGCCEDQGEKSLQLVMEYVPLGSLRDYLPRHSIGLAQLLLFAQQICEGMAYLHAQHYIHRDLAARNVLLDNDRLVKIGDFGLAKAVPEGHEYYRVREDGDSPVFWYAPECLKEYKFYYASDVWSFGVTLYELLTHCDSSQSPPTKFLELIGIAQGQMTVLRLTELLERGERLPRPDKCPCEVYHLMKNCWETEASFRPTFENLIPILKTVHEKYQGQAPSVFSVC
Assay: TYK2 inhibition assay
Assay type: biochemical
Settings: Comparative Compounds (Table XII)
Description: Recombinant human TYK2 catalytic domain (amino acids 871-1187; catalog number 08-147) was purchased from Carna biosciences. 5 ng of TYK2 was incubated with 12.5 μg polyGT substrate (Sigma catalog number P0275) in kinase reaction buffer (25 mM Hepes pH 7.2, 50 mM NaCl, 0.5 mM EDTA, 1 mM DTT, 5 mM MnCl2, 10 mM MgCl2, 0.1% Brij-35, 0.1 μM non-radioactive ATP, 0.125 μCi ^33P-gamma-ATP (GE Healthcare, catalog number AH9968) final concentrations) with or without 5 μL containing test compound or vehicle (DMSO, 1% final concentration), in a total volume of 25 μL, in a polypropylene 96-well plate (Greiner, V-bottom). After 90 min at 30° C., reactions were stopped by adding 25 μL/well of 150 mM phosphoric acid. All of the terminated kinase reaction was transferred to prewashed (75 mM phosphoric acid) 96 well filter plates (Perkin Elmer catalog number 6005177) using a cell harvester (Perkin Elmer). Plates were washed 6 times with 300 μL per well of a 75 mM phosphoric acid solution and the bottom of the plates was sealed. 40 μL/well of Microscint-20 was added, the top of the plates was sealed and readout was performed using the Topcount (Perkin Elmer). Kinase activity was calculated by subtracting counts per min (cpm) obtained in the presence of a positive control inhibitor (10 μM staurosporine) from cpm obtained in the presence of vehicle. The ability of a test compound to inhibit this activity was determined as: Percentage inhibition=((cpm determined for sample with test compound present−cpm determined for sample with positive control inhibitor) divided by (cpm determined in the presence of vehicle−cpm determined for sample with positive control inhibitor))*100.
Dose dilution series were prepared for the compounds enabling the testing of dose-response effects in the TYK2 assay and the calculation of the IC50 for each compound. Each compound was routinely tested at concentration of 20 μM followed by a 1/3 serial dilution, 8 points (20 μM-6.67 μM-2.22 μM-740 nM-247 nM-82 nM-27 nM-9 nM) in a final concentration of 1% DMSO. When potency of compound series increased, more dilutions were prepared and/or the top concentration was lowered (e.g. 5 μM, 1 μM).

pIC50 | SMILES
< 6.30 | CN(c1cc2c(cn1)ncn2C)c1ccc(C#N)cc1F [D, reference compound]
< 6.30 | CN(c1ccc2ncn(C)c2c1)c1ccc(C#N)cc1F [C, 3-fluoro-4-[methyl-(3-methylbenzimidazol-5-yl)amino]benzonitrile, reference compound]

Same assay, conditions: Illustrative Compounds of the invention (Table XI)

pIC50 | SMILES
6.30 to 7.00 | CCc1cc(S(C)(=O)=O)ncc1Oc1cc(NC(=O)C2CC2)c2ncn(C)c2c1 [Cpd 29, N-[6-[(4-ethyl-6-methylsulfonyl-3-pyridyl)oxy]-1-methyl-benzimidazol-4-yl]cyclopropanecarboxamide]
< 6.30 | Cc1cc(C#N)ncc1Oc1cc(NC(=O)N2CCOCC2)c2ncn(C)c2c1 [Cpd 37, N-[6-[(6-cyano-4-methyl-3-pyridyl)oxy]-1-methyl-benzimidazol-4-yl]morpholine-4-carboxamide]
7.30 to 10.00 | Cc1cc(C#N)ncc1Oc1cc(NC(=O)C2CC2)c2ncn(C)c2c1 [Cpd 23, N-[6-[(6-cyano-4-methyl-3-pyridyl)oxy]-1-methyl-benzimidazol-4-yl]cyclopropanecarboxamide]
7.30 to 10.00 | CCc1cc(C#N)cc(F)c1N(C)c1cc(NC(=O)C2CC2)c2ncn(C)c2c1 [Cpd 3, N-(6-((4-cyano-2-ethyl-6-fluorophenyl)(methyl)amino)-1-methyl-1H-benzo[d]imidazol-4-yl)cyclopropanecarboxamide]
6.30 to 7.00 | CN(c1cc(NC(=O)[C@H]2C[C@H]2F)c2ncn(C)c2c1)c1ccc(S(C)(=O)=O)cc1F [Cpd 17, (1R,2R)-2-fluoro-N-[6-(2-fluoro-N-methyl-4-methylsulfonyl-anilino)-1-methyl-benzimidazol-4-yl]cyclopropanecarboxamide]
7.30 to 10.00 | Cc1cc(F)ncc1N(C)c1cc(NC(=O)[C@H]2C[C@H]2F)c2ncn(C)c2c1 [Cpd 12, (1R,2R)-2-fluoro-N-[6-[(6-fluoro-4-methyl-3-pyridyl)-methyl-amino]-1-methyl-benzimidazol-4-yl]cyclopropanecarboxamide]
7.30 to 10.00 | CCc1cc(C#N)cc(F)c1N(C)c1cc(NC(=O)[C@@H]2C[C@@H]2F)c2ncn(C)c2c1 (racemic) [Cpd 7, N-(6-((4-cyano-2-ethyl-6-fluorophenyl)(methyl)amino)-1-methyl-1H-benzo[d]imidazol-4-yl)-2-fluorocyclopropanecarboxamide (1S,2S)/(1R,2R) racemic mixture]
7.30 to 10.00 | CCc1cc(C#N)cc(F)c1N(C)c1cc(NC(=O)OC)c2ncn(C)c2c1 [Cpd 5, methyl 6-((4-cyano-2-ethyl-6-fluorophenyl)(methyl)amino)-1-methyl-1H-benzo[d]imidazol-4-ylcarbamate]
7.30 to 10.00 | Cc1cc(C#N)nc(F)c1N(C)c1cc(NC(=O)[C@H]2C[C@H]2F)c2ncn(C)c2c1 [Cpd 21, (1R,2R)-N-[6-[(6-cyano-2-fluoro-4-methyl-3-pyridyl)-methyl-amino]-1-methyl-benzimidazol-4-yl]-2-fluoro-cyclopropanecarboxamide]
7.30 to 10.00 | CNC(=O)Nc1cc(Oc2cnc(C#N)cc2C)cc2c1ncn2C
7.30 to 10.00 | Cc1cc(S(C)(=O)=O)cc(F)c1N(C)c1cc(NC(=O)C2CC2)c2ncn(C)c2c1 [Cpd 19, N-[6-(2-fluoro-N,6-dimethyl-4-methylsulfonyl-anilino)-1-methyl-benzimidazol-4-yl]cyclopropanecarboxamide]
7.30 to 10.00 | CCc1cc(C#N)ncc1Oc1cc(NC(=O)[C@H]2C[C@H]2F)c2ncn(C)c2c1 [Cpd 6, (1R,2R)-N-[6-[(6-cyano-4-ethyl-3-pyridyl)oxy]-1-methyl-benzimidazol-4-yl]-2-fluoro-cyclopropanecarboxamide]
7.30 to 10.00 | Cc1cc(S(C)(=O)=O)ccc1N(C)c1cc(NC(=O)[C@H]2C[C@H]2F)c2ncn(C)c2c1 [Cpd 26, (1R,2R)-N-[6-(N,2-dimethyl-4-methylsulfonyl-anilino)-1-methyl-benzimidazol-4-yl]-2-fluoro-cyclopropanecarboxamide]
< 6.30 | CNc1cc(Oc2cnc(C#N)cc2C)cc2c1ncn2C [Cpd 34, 4-methyl-5-[3-methyl-7-(methylamino)benzimidazol-5-yl]oxy-pyridine-2-carbonitrile]
7.30 to 10.00 | CCc1cc(C(N)=O)ncc1N(C)c1cc(NC(=O)[C@H]2C[C@H]2F)c2ncn(C)c2c1 [Cpd 25, 4-ethyl-5-((4-((1R,2R)-2-fluorocyclopropanecarboxamido)-1-methyl-1H-benzo[d]imidazol-6-yl)(methyl)amino)picolinamide]
7.30 to 10.00 | CCc1cc(C#N)ncc1N(C)c1cc(NC(=O)[C@H]2C[C@H]2F)c2ncn(C)c2c1 [Cpd 8, (1R,2R)-N-(6-((6-cyano-4-ethylpyridin-3-yl)(methyl)amino)-1-methyl-1H-benzo[d]imidazol-4-yl)-2-fluorocyclopropanecarboxamide]
7.30 to 10.00 | CCc1cc(S(C)(=O)=O)ncc1N(C)c1cc(NC(=O)C2CC2)c2ncn(C)c2c1 [Cpd 18, N-[6-[(4-ethyl-6-methylsulfonyl-3-pyridyl)-methyl-amino]-1-methyl-benzimidazol-4-yl]cyclopropanecarboxamide]
7.30 to 10.00 | CN(c1cc(NC(=O)[C@H]2C[C@H]2F)c2ncn(C)c2c1)c1ccc(C#N)nc1F [Cpd 14, (1R,2R)-N-[6-[(6-cyano-2-fluoro-3-pyridyl)-methyl-amino]-1-methyl-benzimidazol-4-yl]-2-fluoro-cyclopropanecarboxamide]
7.00 to 7.30 | Cc1cc(C(N)=O)ncc1Oc1cc(NC(=O)[C@H]2C[C@H]2F)c2ncn(C)c2c1 [Cpd 32, 5-[7-[[(1R,2R)-2-fluorocyclopropanecarbonyl]amino]-3-methyl-benzimidazol-5-yl]oxy-4-methyl-pyridine-2-carboxamide]
7.30 to 10.00 | CCc1cc(C#N)ncc1N(C)c1cc(NC(=O)OC)c2ncn(C)c2c1 [Cpd 4, methyl 6-((6-cyano-4-ethylpyridin-3-yl)(methyl)amino)-1-methyl-1H-benzo[d]imidazol-4-ylcarbamate]
7.30 to 10.00 | Cc1cc(S(C)(=O)=O)cc(F)c1N(C)c1cc(NC(=O)[C@H]2C[C@H]2F)c2ncn(C)c2c1 [Cpd 16, (1R,2R)-2-fluoro-N-[6-(2-fluoro-N,6-dimethyl-4-methylsulfonyl-anilino)-1-methyl-benzimidazol-4-yl]cyclopropanecarboxamide]
7.30 to 10.00 | Cc1cc(C#N)ncc1N(C)c1cc(NC(=O)[C@H]2C[C@H]2F)c2ncn(C)c2c1 [Cpd 9, (1R,2R)-N-(6-((6-cyano-4-methylpyridin-3-yl)(methyl)amino)-1-methyl-1H-benzo[d]imidazol-4-yl)-2-fluorocyclopropanecarboxamide]
6.30 to 7.00 | Cc1cc(C#N)ncc1Oc1cc(N)c2ncn(C)c2c1 [Cpd 28, 5-(7-amino-3-methyl-benzimidazol-5-yl)oxy-4-methyl-pyridine-2-carbonitrile]
7.30 to 10.00 | Cc1cnc(C#N)c(F)c1N(C)c1cc(NC(=O)[C@H]2C[C@H]2F)c2ncn(C)c2c1 [Cpd 22, (1R,2R)-N-[6-[(2-cyano-3-fluoro-5-methyl-4-pyridyl)-methyl-amino]-1-methyl-benzimidazol-4-yl]-2-fluoro-cyclopropanecarboxamide]
7.30 to 10.00 | CN(c1cc(NC(=O)[C@H]2C[C@H]2F)c2ncn(C)c2c1)c1ccc(F)nc1F [Cpd 13, (1R,2R)-N-[6-[(2,6-difluoro-3-pyridyl)-methyl-amino]-1-methyl-benzimidazol-4-yl]-2-fluoro-cyclopropanecarboxamide]
